Source: patent publication US11229707B2, “Promoting immune responses” (National Institute of Biological Sciences, Beijing, priority 2018, dated 2022)
Read-outs that look alike come from different tables or passages of the source.

How the values were obtained:
alpha-kinase 1 (ALPK1) = alpha-kinase 1 (ALPK1) (Homo sapiens, UniProt Q96QP1); assay: ALPK1 activation (kinase domain phosphorylation of TIFA); assay type: biochemical
[1] = test system: innate immune responses in mice; assay: Mouse dorsal air pouch model of acute inflammation (neutrophil recruitment, multiplex immunoassay for 36 cytokines); assay type: in vivo; conditions: for proinflammatory cytokines and chemokines in air pouches (IL-6, TNFα, IP-10, MCP-1/3, IFNγ, GM-CSF, MIP-1α and β, RANTES): air-pouch washes, compared with saline control; for neutrophil recruitment into the air pouch: injection into air pouch; for level of GRO-α/KC/CXCL1, IP-10 and MCP-1 in the sera: sera of injected mice
From the text: To investigate whether ADP-Hep alone could stimulate innate immune responses in vivo, a mouse dorsal air pouch model established to assess acute inflammation was employed (Gaudet et al. Science 348, 1251-1255 (2015).
We then performed a multiplex immunoassay for 36 cytokines in both the air-pouch washes and the sera of injected mice. […] Thus, ADP-Hep but not HBP alone can potently activate innate immune responses in mice.
To confirm that 1-ADP-heptoses and 1-ADP-heptose-7-phosphates can stimulate innate immune responses in vivo, a mouse dorsal air pouch model established to assess acute inflammation was employed (Gaudet, et al. Science 348, 1251-1255 (2015).
Injection of 1-ADP-heptoses and 1-ADP-heptose-7-phosphates into the air pouch induces neutrophil recruitment into the pouch. […] 1-ADP-heptoses and 1-ADP-heptose-7-phosphates also increase the level of keratinocyte-derived chemokine (GRO-a/KC/CXCL1), IP-10 and MCP-1 in the sera.

NF-κB in 293T cells = assay: NF-κB activation in 293T cells, luciferase reporter activity; assay type: cell-based
TIFA = TIFA phosphorylation in 293T cells stably expressing EGFP-TIFA, anti-pT9-TIFA immunoblot; assay type: cell-based; conditions: 5 μM for 5 hours
Protocol: FIG. 1B. […] 293T cells stably expressing EGFP-TIFA were treated with ADP-heptose analogs (5 μM) for 5 hours, and analyzed by anti-pT9-TIFA immunoblot.

B16-OVA melanoma cells = assay: B16-OVA tumor growth, posttumor intratumor treatment; assay type: in vivo, C57BL/6N mice; conditions: 0.5 mg/mouse intratumor injection on day 8, 11, 14, 17
Protocol: FIG. 1D and FIG. 1E. […] C57BL/6N mice (n=6 mice per group) were injected subcutaneously with 2×10^5 B16-OVA melanoma cells on day 0. ADP-heptose (0.5 mg/mouse) was administered on day 8, 11, 14, and 17 after tumor inoculation by intratumor injection. Tumor volume (D) and tumor weight (E).

[2] = test system: MC38 colorectal adenocarcinoma cells; assay: MC38 tumor growth, posttumor treatment with checkpoint blockade; assay type: in vivo, C57BL/6N mice; conditions: 0.5 mg/mouse intratumor combined with anti-PD-1 antibody 40 ug/mouse intraperitoneal, day 13-28
Protocol: FIG. 1F. […] C57BL/6N mice (n=6 mice per group) were injected subcutaneously with 2×10^5 MC38 colorectal adenocarcinoma cells on day 0. ADP-heptose (0.5 mg/mouse, intratumor injection) and anti-PD-1 antibody (40 ug/mouse, intraperitoneal injection) was administered on day 13, 16, 19, 22, 25, and 28 after tumor inoculation.

[3] = target: ALPK1 N-terminal domain (NTD) (Homo sapiens, UniProt Q96QP1); assay: Direct binding to ALPK1 N-terminal domain
THP-1 and 293T cells [4] = assay: Host cytosol entry, NF-kB activation and cytokine induction in THP-1 and 293T cells; conditions: for cytokines induction (such as interleukin-8): THP-1 and 293T cells, compound added on its own
[5] = test system: ovalbumin (OVA)-specific IgG; assay: Adjuvant activity in vivo: OVA immunization, serum OVA-specific IgG by ELISA; conditions: C57BL/6N mice, intramuscular, 10 μg OVA mixed with 0.5 mg/mouse; after 21 days
Protocol: FIG. 1C. […] C57BL/6N mice (8 mice per group) were immunized intramuscularly with 10 μg OVA mixed with PBS, alum (2 mg/mouse), or ADP-heptose (0.5 mg/mouse). After 21 days, serum titers of OVA-specific IgG were measured by ELISA.

THP-1 and 293T cells [6] = test system: THP-1 and 293T cells

Sequence of alpha-kinase 1 (ALPK1) (Q96QP1 whole entry, the tested form may be a part): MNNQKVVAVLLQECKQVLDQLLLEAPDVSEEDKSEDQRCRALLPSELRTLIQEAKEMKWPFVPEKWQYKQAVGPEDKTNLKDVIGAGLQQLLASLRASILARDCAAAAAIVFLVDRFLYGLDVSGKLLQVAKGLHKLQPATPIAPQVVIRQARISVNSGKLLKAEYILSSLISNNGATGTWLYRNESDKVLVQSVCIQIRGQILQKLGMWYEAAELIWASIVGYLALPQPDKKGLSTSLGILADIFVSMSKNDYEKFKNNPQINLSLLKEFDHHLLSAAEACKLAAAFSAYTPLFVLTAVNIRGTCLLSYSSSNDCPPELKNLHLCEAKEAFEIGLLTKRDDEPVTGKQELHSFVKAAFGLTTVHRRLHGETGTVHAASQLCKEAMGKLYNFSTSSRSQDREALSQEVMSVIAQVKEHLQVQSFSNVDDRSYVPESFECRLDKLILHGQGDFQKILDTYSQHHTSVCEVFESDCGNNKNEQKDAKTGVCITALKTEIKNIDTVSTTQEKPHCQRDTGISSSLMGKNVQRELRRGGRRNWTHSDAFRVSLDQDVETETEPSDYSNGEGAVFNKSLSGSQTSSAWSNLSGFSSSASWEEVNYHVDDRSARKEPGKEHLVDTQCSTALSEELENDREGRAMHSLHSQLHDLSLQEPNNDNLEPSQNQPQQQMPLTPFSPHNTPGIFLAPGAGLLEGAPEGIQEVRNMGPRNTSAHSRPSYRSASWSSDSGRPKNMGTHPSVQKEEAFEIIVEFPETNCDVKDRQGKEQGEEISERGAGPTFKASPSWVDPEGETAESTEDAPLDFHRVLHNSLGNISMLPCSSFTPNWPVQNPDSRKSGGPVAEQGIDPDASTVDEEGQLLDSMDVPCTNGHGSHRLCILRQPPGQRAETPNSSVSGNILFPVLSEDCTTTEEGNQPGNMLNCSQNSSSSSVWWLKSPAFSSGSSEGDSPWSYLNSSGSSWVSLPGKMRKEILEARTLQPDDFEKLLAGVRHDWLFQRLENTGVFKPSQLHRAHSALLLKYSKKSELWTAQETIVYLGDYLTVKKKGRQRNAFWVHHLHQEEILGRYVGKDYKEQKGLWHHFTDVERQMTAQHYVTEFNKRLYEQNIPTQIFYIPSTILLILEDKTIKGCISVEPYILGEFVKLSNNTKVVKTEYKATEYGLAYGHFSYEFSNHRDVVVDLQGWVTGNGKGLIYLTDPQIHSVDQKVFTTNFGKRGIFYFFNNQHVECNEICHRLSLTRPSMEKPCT
Sequence of ALPK1 N-terminal domain (NTD) (Q96QP1 1-473 limits assumed): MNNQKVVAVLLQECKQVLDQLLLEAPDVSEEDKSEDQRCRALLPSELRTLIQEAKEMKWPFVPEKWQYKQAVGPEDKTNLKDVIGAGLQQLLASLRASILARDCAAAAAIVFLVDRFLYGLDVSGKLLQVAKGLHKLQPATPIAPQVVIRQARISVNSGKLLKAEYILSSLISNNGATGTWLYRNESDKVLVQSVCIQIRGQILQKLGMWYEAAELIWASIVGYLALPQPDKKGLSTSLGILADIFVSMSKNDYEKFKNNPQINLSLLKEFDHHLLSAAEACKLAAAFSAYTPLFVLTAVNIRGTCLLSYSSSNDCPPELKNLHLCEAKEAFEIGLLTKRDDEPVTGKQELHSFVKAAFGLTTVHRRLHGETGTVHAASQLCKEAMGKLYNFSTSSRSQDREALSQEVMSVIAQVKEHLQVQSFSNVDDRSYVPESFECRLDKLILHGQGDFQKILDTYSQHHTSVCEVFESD

Nc1ncnc2c1ncn2C1OC(COP(=O)(O)OP(=O)(O)OC2OC(C(O)COP(=O)(O)O)C(O)C(O)C2O)C(O)C1O (stereo not shown) [ADP-Heptose 7-P]
ALPK1 activation (alpha-kinase 1 (ALPK1)): ALPK1 activation-competent

Nc1ncnc2c1ncn2[C@@H]1O[C@H](COP(=O)(O)OP(=O)(O)O[C@@H]2O[C@H]([C@@H](O)CO)[C@@H](O)[C@H](O)[C@@H]2O)[C@@H](O)[C@H]1O [ADP-LD-Hep]
proinflammatory cytokines and chemokines in air pouches (IL-6, TNFα, IP-10, MCP-1/3, IFNγ, GM-CSF, MIP-1α and β, RANTES) [1]: highly elevated | neutrophil recruitment into the air pouch [1]: induced massive neutrophil recruitment into the pouch | level of GRO-α/KC/CXCL1, IP-10 and MCP-1 in the sera [1]: increased the level

Nc1ncnc2c1ncn2[C@@H]1O[C@H](COP(=O)(O)OP(=O)(O)O[C@@H]2O[C@H]([C@H](O)CO)[C@@H](O)[C@H](O)[C@@H]2O)[C@@H](O)[C@H]1O [ADP-heptose, 1-ADP-β-D-manno-Heptose]
ALPK1 activation (alpha-kinase 1 (ALPK1)): stimulates the NTD-bound C-terminal kinase domain to phosphorylate TIFA and induce its oligomerization | NF-κB activation (luciferase reporter activity) (NF-κB in 293T cells): activated NF-κB in 293T cells in a dose-dependent manner | TIFA phosphorylation (anti-pT9-TIFA immunoblot) (TIFA): induced TIFA phosphorylation | B16-OVA tumor growth (tumor volume, tumor weight) (B16-OVA melanoma cells): Inhibition of B16-OVA tumor growth | MC38 tumor growth [2]: Inhibition of MC38 tumor growth | direct binding to ALPK1 N-terminal domain [3]: directly binds | cytokines induction (such as interleukin-8) (THP-1 and 293T cells [4]): cytokines induction | entry into host cytosol on its own (THP-1 and 293T cells [4]; host cells): could enter host cytosol on its own | inflammatory responses in mice after injection ([1]; mice, Alpk1-dependent): induces robust inflammatory responses in mice | serum ovalbumin (OVA)-specific IgG production (adjuvant activity) [5]: exhibited adjuvant activity in vivo to elevate the serum ovalbumin (OVA)-specific IgG production

Nc1ccn(C2OC(COP(=O)(O)OP(=O)(O)OC3OC(C(O)CO)C(O)C(O)C3O)C(O)C2O)c(=O)n1 (stereo not shown) [CDP-heptose]
NF-κB activation (luciferase reporter activity) (NF-κB in 293T cells): activated NF-κB in 293T cells in a dose-dependent manner | TIFA phosphorylation (anti-pT9-TIFA immunoblot) (TIFA): induce TIFA phosphorylation

Nc1nc2c(ncn2[C@@H]2O[C@H](COP(=O)(O)OP(=O)(O)O[C@H]3O[C@H]([C@H](O)CO)[C@@H](O)[C@H](O)[C@@H]3O)[C@@H](O)[C@H]2O)c(=O)[nH]1 [GDP-heptose]
NF-κB activation (luciferase reporter activity) (NF-κB in 293T cells): activated NF-κB in 293T cells in a dose-dependent manner | TIFA phosphorylation (anti-pT9-TIFA immunoblot) (TIFA): induce TIFA phosphorylation

O=P(O)(O)OC[C@@H](O)[C@H]1O[C@@H](OP(=O)(O)O)[C@@H](O)[C@@H](O)[C@@H]1O [HBP, D-glycero-β-D-manno Heptose 1,7-bisphosphate, reference compound]
entry into host cytosol on its own (THP-1 and 293T cells [6]): cell-impermeable | cytokines induction (such as interleukin-8) (THP-1 and 293T cells [4]): not | NF-κB activation (THP-1 and 293T cells [4]; transfected into host cells): NF-κB activation observed | proinflammatory cytokines and chemokines in air pouches (IL-6, TNFα, IP-10, MCP-1/3, IFNγ, GM-CSF, MIP-1α and β, RANTES) [1]: did not affect local and systemic productions | neutrophil recruitment into the air pouch [1]: failed to increase the number of air-pouch neutrophils | level of GRO-α/KC/CXCL1, IP-10 and MCP-1 in the sera [1]: did not affect local and systemic productions

O=c1ccn(C2OC(COP(=O)(O)OP(=O)(O)OC3OC(C(O)CO)C(O)C(O)C3O)C(O)C2O)c(=O)[nH]1 (stereo not shown) [UDP-heptose]
NF-κB activation (luciferase reporter activity) (NF-κB in 293T cells): activated NF-κB in 293T cells in a dose-dependent manner | TIFA phosphorylation (anti-pT9-TIFA immunoblot) (TIFA): induce TIFA phosphorylation

Nc1ncnc2c1ncn2C1CC(O)C(COP(=O)(O)OP(=O)(O)OC2OC(C(O)CO)C(O)C(O)C2O)O1 (stereo not shown) [dADP-heptose]
NF-κB activation (luciferase reporter activity) (NF-κB in 293T cells): activated NF-κB in 293T cells in a dose-dependent manner | TIFA phosphorylation (anti-pT9-TIFA immunoblot) (TIFA): induce TIFA phosphorylation

Nc1ccn(C2CC(O)C(COP(=O)(O)OP(=O)(O)OC3OC(C(O)CO)C(O)C(O)C3O)O2)c(=O)n1 (stereo not shown) [dCDP-heptose]
NF-κB activation (luciferase reporter activity) (NF-κB in 293T cells): activated NF-κB in 293T cells in a dose-dependent manner | TIFA phosphorylation (anti-pT9-TIFA immunoblot) (TIFA): induce TIFA phosphorylation

Nc1nc2c(ncn2C2CC(O)C(COP(=O)(O)OP(=O)(O)OC3OC(C(O)CO)C(O)C(O)C3O)O2)c(=O)[nH]1 (stereo not shown) [dGDP-heptose]
NF-κB activation (luciferase reporter activity) (NF-κB in 293T cells): activated NF-κB in 293T cells in a dose-dependent manner | TIFA phosphorylation (anti-pT9-TIFA immunoblot) (TIFA): induce TIFA phosphorylation

Cc1cn(C2CC(O)C(COP(=O)(O)OP(=O)(O)OC3OC(C(O)CO)C(O)C(O)C3O)O2)c(=O)[nH]c1=O (stereo not shown) [dTDP-heptose]
NF-κB activation (luciferase reporter activity) (NF-κB in 293T cells): activated NF-κB in 293T cells in a dose-dependent manner | TIFA phosphorylation (anti-pT9-TIFA immunoblot) (TIFA): induce TIFA phosphorylation
